Measurements: patent US20240000767A1, “COMBINATION OF AN ALPHA2-ADRENOCEPTOR SUBTYPE C (ALPHA-2C) ANTAGONIST WITH A TASK1/3 CHANNEL BLOCKER FOR THE TREATMENT OF SLEEP APNEA” (Bayer Aktiengesellschaft, priority 2020, published 2024)

target: human ADRA2C receptor (Homo sapiens (Human), UniProt P18825); assay: In vitro activity assay to determine the inhibition of recombinant ADRA2C (CHO-K1 cells, aequorin bioluminescence); type: cell-based; details: inhibition of noradrenaline-induced bioluminescence signal; some mean values from multiple determinations; read-out: ARα2C IC50
Sequence (P18825 whole entry): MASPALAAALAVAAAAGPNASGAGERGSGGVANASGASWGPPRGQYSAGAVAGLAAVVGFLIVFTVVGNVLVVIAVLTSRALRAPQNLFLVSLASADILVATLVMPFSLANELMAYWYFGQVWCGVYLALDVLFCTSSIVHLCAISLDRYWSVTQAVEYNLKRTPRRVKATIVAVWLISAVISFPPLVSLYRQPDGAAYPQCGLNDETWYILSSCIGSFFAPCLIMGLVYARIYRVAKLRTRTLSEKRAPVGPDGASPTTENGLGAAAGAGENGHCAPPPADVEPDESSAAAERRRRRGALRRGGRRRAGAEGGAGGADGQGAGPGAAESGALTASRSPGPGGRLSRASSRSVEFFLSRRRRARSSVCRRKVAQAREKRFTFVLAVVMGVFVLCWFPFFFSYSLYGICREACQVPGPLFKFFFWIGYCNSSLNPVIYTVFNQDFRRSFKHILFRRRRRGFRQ
Experimental: B-2. In Vitro Activity Assay to Determine the Inhibition of Recombinant ADRA2C
The human ADRA2C receptor belongs to the G protein(guanine-dependent protein)-coupled receptors, the main function of which is the transduction of signals into the interior of the cell.
The investigations of the inhibition of the recombinant human ADRA2C receptors were carried out with stabily transfected CHO-K1 cells coexpressing the Gaq protein and the calcium-sensitive photoprotein aequorin. In this recombinant system, binding of the agonists noradrenaline to the ADRA2C receptor leads, after activation of a signal cascade, to calcium release from intracellular stores, which is detected by the intracellular calcium sensor aequorin as a bioluminescent signal. The method is described in detail in the reference below. [Wunder F., Kalthof B., Muller T., Hueser J. Functional Cell-Based Assays in Microliter Volumes for Ultra-High Throughput Screening. Combinatorial Chemistry & High Throughput Screening, Volume 11, Number 7, 2008, pp. 495-504(10). doi.org/10.2174/138620708785204054]
The activity of the test substances was determined via their ability to inhibit the agonist-induced increase of the bioluminescence signal. The concentration which can block half of this signal increase is referred to as IC50. The IC50 value is calculated using the 4 parameter logistic function (Hill function):
Top=upper threshold, Bottom=lower threshold, Slope=slope, IC50=turning point

SMILES | IC50 [nM]
O=C(NCc1ncc(F)cc1F)c1cnc(N2CCC(N3CCCC(OC4CC(F)(F)C4)C3)CC2)s1 (racemic) [Example 110, rac-2-{3-[(3,3-Difluorocyclobutyl)oxy][1,4′-bipiperidin]-1′-yl}-N-[(3,5-difluoropyridin-2-yl)methyl]-1,3-thiazole-5-carboxamide] | 1.5
CCCC1CCCN(C2CCN(c3ncc(C(=O)NCc4ncc(F)cc4F)s3)CC2)C1 (racemic) [Example 121, rac-N-[(3,5-Difluoropyridin-2-yl)methyl]-2-(3-propyl[1,4′-bipiperidin]-1′-yl)-1,3-thiazole-5-carboxamide] | 0.65
O=C(NCc1ncc(F)cc1F)c1cnc(N2CCC(N3CCCC(CCF)C3)CC2)s1 (racemic) [Example 127, rac-Formic acid N-[(3,5-difluoropyridin-2-yl)methyl]-2-[3-(2-fluoroethyl)[1,4′-bipiperidin]-1′-yl]-1,3-thiazole-5-carboxamide] | 8.4
O=C(NCc1ncc(F)cc1F)c1cnc(N2CCC(N3CCCC(c4ccccc4)C3)CC2)s1 (racemic) [Example 133, rac-N-[(3,5-Difluoropyridin-2-yl)methyl]-2-(3-phenyl[1,4′-bipiperidin]-1′-yl)-1,3-thiazole-5-carboxamide] | 0.95
CC(NC(=O)c1cnc(N2CCC(N3CCC[C@@H](C)C3)CC2)s1)c1cc(F)ccc1F (single isomer, unassigned) [Example 46] | 8.3
CC(NC(=O)c1cnc(N2CCC(N3CCC[C@@H](C)C3)CC2)s1)c1cc(F)ccc1F (single isomer, unassigned) [Example 47] | 25
C[C@@H]1CCCN(C2CCN(c3ncc(C(=O)NCc4ncc(F)cc4F)s3)CC2F)C1 (single isomer, unassigned) [Example 51] | 150
C[C@@H]1CCCN(C2CCN(c3ncc(C(=O)NCc4ncc(F)cc4F)s3)CC2F)C1 (single isomer, unassigned) [Example 52] | 6.7
COCC1CCCN(C2CCN(c3ncc(C(=O)NCc4ncc(F)cc4F)s3)CC2)C1 (single isomer, unassigned) [Example 99, ent-N-[(3,5-Difluoropyridin-2-yl)methyl]-2-[3-(methoxymethyl) [1,4′-bipiperidin]-1′-yl]-1,3-thiazole-5-carboxamide] | 590
CC1CCCN(C2CCN(c3ncc(C(=O)NCc4ncc(F)cc4F)s3)CC2)CC1 (single isomer, unassigned) [Example 104, ent-N-[(3,5-Difluoropyridin-2-yl)methyl]-2-[4-(4-methylazepan-1-yl)piperidin-1-yl]-1,3-thiazole-5-carboxamide] | 10
CC1CCCN(C2CCN(c3ncc(C(=O)NCc4ncc(F)cc4F)s3)CC2)CC1 (single isomer, unassigned) [Example 105, ent-N-[(3,5-Difluoropyridin-2-yl)methyl]-2-[4-(4-methylazepan-1-yl)piperidin-1-yl]-1,3-thiazole-5-carboxamide] | 4.3
O=C(NCc1ncc(F)cc1F)c1cnc(N2CCC(N3CCCC(COCC(F)(F)F)C3)CC2)s1 (single isomer, unassigned) [Example 106, ent-N-[(3,5-Difluoropyridin-2-yl)methyl]-2-{3-[(2,2,2-trifluoroethoxy)methyl][1,4′-bipiperidin]-1′-yl}-1,3-thiazole-5-carboxamide] | 0.5
O=C(NCc1ncc(F)cc1F)c1cnc(N2CCC(N3CCCC(COCC(F)(F)F)C3)CC2)s1 (single isomer, unassigned) [Example 107, ent-N-[(3,5-Difluoropyridin-2-yl)methyl]-2-{3-[(2,2,2-trifluoroethoxy)methyl][1,4′-bipiperidin]-1′-yl}-1,3-thiazole-5-carboxamide] | 37
CCOC1CCCN(C2CCN(c3ncc(C(=O)NCc4ncc(F)cc4F)s3)CC2)C1 (single isomer, unassigned) [Example 123, ent-N-[(3,5-Difluoropyridin-2-yl)methyl]-2-(3-ethoxy[1,4′-bipiperidin]-1′-yl)-1,3-thiazole-5-carboxamide] | 260
CCOC1CCCN(C2CCN(c3ncc(C(=O)NCc4ncc(F)cc4F)s3)CC2)C1 (single isomer, unassigned) [Example 124, ent-N-[(3,5-Difluoropyridin-2-yl)methyl]-2-(3-ethoxy[1,4′-bipiperidin]-1′-yl)-1,3-thiazole-5-carboxamide] | 2.9
O=C(NCc1ncc(F)cc1F)c1cnc(N2CCC(N3CCCC(COCC4CC4)C3)CC2)s1 (single isomer, unassigned; ent-2) [Example 115, ent-2-{3-[(Cyclopropylmethoxy)methyl][1,4′-bipiperidin]-1′-yl}-N-[(3,5-difluoropyridin-2-yl)methyl]-1,3-thiazole-5-carboxamide] | 0.61
O=C(NCc1ncc(F)cc1F)c1cnc(N2CCC(N3CCCC(COCC4CC4)C3)CC2)s1 (single isomer, unassigned; ent-2) [Example 116, ent-2-{3-[(Cyclopropylmethoxy)methyl][1,4′-bipiperidin]-1′-yl}-N-[(3,5-difluoropyridin-2-yl)methyl]-1,3-thiazole-5-carboxamide] | 11
O=C(NCc1ncc(F)cc1F)c1cnc(N2CCC(N3CCCC4(C3)CC4(F)F)CC2)s1 (single isomer, unassigned; ent-2) [Example 131, ent-2-[4-(1,1-Difluoro-5-azaspiro[2.5]octan-5-yl)piperidin-1-yl]-N-[(3,5-difluoropyridin-2-yl)methyl]-1,3-thiazole-5-carboxamide] | 1.9
O=C(NCc1ncc(F)cc1F)c1cnc(N2CCC(N3CCCC4(C3)CC4(F)F)CC2)s1 (single isomer, unassigned; ent-2) [Example 132, ent-2-[4-(1,1-Difluoro-5-azaspiro[2.5]octan-5-yl)piperidin-1-yl]-N-[(3,5-difluoropyridin-2-yl)methyl]-1,3-thiazole-5-carboxamide (enantiomer 2)] | 0.71
O=C(NCc1ncc(F)cc1F)c1cnc(N2CCC(N3CCc4ccccc4C3)CC2)s1 [Example 2, N-[(3,5-Difluoropyridin-2-yl)methyl]-2-[4-(3,4-dihydroisoquinolin-2(1H)-yl)piperidin-1-yl]-1,3-thiazole-5-carboxamide] | 5.2
Cc1nc(N2CCC(N3CCC[C@@H](C)C3)CC2)sc1C(=O)NCc1ncc(F)cc1F [Example 8, N-[(3,5-difluoropyridin-2-yl)methyl]-4-methyl-2-[(3R)-3-methyl[1,4′-bipiperidin]-1′-yl]-1,3-thiazole-5-carboxamide] | 591
Cc1sc(N2CCC(N3CCC[C@@H](C)C3)CC2)nc1C(=O)NCc1ncc(F)cc1F [Example 9, N-[(3,5-difluoropyridin-2-yl)methyl]-5-methyl-2-[(3R)-3-methyl[1,4′-bipiperidin]-1′-yl]-1,3-thiazole-4-carboxamide] | 170
C[C@@H]1CCCN(C2CCN(c3nc(C(=O)NCc4ncc(F)cc4F)cs3)CC2)C1 [Example 10, N-[(3,5-difluoropyridin-2-yl)methyl]-2-[(3R)-3-methyl[1,4′-bipiperidin]-1′-yl]-1,3-thiazole-4-carboxamide] | 21.4
C[C@@H]1CCCN(C2CCN(c3nc(C(F)(F)F)c(C(=O)NCc4ncc(F)cc4F)s3)CC2)C1 [Example 11, N-[(3,5-difluoropyridin-2-yl)methyl]-2-[(3R)-3-methyl[1,4′-bipiperidin]-1′-yl]-4-(trifluoromethyl)-1,3-thiazole-5-carboxamide] | 140
CCc1sc(N2CCC(N3CCC[C@@H](C)C3)CC2)nc1C(=O)NCc1ncc(F)cc1F [Example 12, N-[(3,5-difluoropyridin-2-yl)methyl]-5-ethyl-2-[(3R)-3-methyl[1,4′-bipiperidin]-1′-yl]-1,3-thiazole-4-carboxamide] | 107
C[C@@H]1CCCN(C2CCN(c3nc(C(=O)NCc4ncc(F)cc4F)co3)CC2)C1 [Example 13, N-[(3,5-difluoropyridin-2-yl)methyl]-2-[(3R)-3-methyl[1,4′-bipiperidin]-1′-yl]-1,3-oxazole-4-carboxamide] | 209
Cc1oc(N2CCC(N3CCC[C@@H](C)C3)CC2)nc1C(=O)NCc1ncc(F)cc1F [Example 14, N-[(3,5-difluoropyridin-2-yl)methyl]-5-methyl-2-[(3R)-3-methyl[1,4′-bipiperidin]-1′-yl]-1,3-oxazole-4-carboxamide] | 211
CO[C@@H]1CCCN(C2CCN(c3ncc(C(=O)NCc4ncc(F)cc4F)s3)CC2)C1 [Example 15, N-[(3,5-difluoropyridin-2-yl)methyl]-2-[(3R)-3-methoxy[1,4′-bipiperidin]-1′-yl]-1,3-thiazole-5-carboxamide] | 1850
C[C@@H]1CCCN(C2CCN(c3ncc(C(=O)NCc4cccc(C(F)(F)F)c4)s3)CC2)C1 [Example 19, 2-[(3R)-3-Methyl[1,4′-bipiperidin]-1′-yl]-N-[3-(trifluoromethyl)benzyl]-1,3-thiazole-5-carboxamide] | 690
C[C@@H]1CCCN(C2CCN(c3ncc(C(=O)NCc4ncccc4F)s3)CC2)C1 [Example 20, N-[(3-Fluoropyridin-2-yl)methyl]-2-[(3R)-3-methyl[1,4′-bipiperidin]-1′-yl]-1,3-thiazole-5-carboxamide] | 110
